Data as given in US5240957A, “Oxysalicylamido derivatives” (Astra Lakemedel Akteibolag, priority 1984, dated 1993).

Legend:
[1] = test system: apomorphine syndrome; conditions: claimed in prior art; cited from earlier work
[2] = target: T1, dopamine receptors (Rattus norvegicus, UniProt P61169); assay: Receptor binding assay: in vitro block of 3H-spiperone binding, rat striatal membranes; design: species or system Male Sprague-Dawley rats; conditions: rat striatum; 3H-spiperone 0.4 nM; 10 minutes at 37° C.
T1 construct: The striata were dissected, pooled and homogenized in 50 mM Tris-HCl buffer (pH 7.6); from tissue; host or cells: striata of male Sprague-Dawley rats, membrane fraction
T1 sequence (P61169 whole entry): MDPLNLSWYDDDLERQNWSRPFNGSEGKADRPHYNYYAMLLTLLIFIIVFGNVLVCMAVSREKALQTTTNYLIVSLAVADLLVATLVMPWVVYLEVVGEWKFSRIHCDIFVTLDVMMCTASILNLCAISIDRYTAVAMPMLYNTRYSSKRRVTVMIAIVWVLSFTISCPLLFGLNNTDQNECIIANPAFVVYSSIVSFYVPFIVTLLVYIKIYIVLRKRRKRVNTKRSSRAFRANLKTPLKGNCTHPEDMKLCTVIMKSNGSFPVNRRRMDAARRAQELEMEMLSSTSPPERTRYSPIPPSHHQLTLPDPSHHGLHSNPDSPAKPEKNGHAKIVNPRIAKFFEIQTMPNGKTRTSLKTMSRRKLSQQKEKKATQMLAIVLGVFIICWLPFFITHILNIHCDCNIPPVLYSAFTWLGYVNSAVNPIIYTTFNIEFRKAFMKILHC
Method: The assays have been carried out using a cell harvester equipment. The incubations were made in quadruplicate, each well containing membrane suspension (2.5 mg/0.5 ml), ^3 H-spiperone (0.4 nM) and the test compound in a final volume of 0.5 ml. After incubation for 10 minutes at 37° C., the contents of the wells were rapidly filtered and washed on Whatman GF/B filters using the Cell harvester. The specific binding was defined as the difference of ligand bound in the […] of 1 μM (+)-butaclamol. The test results are expressed as IC50.

[3] = test system: DA receptors in subcortical mesolimbic structures (apomorphine hyperactivity); assay: Reduction of apomorphine-induced hyperactivity in the rat; assay type: in vivo, Male Sprague-Dawley rats; conditions: i.p.; 60 min prior to apomorphine hydrochloride 1 mg/kg s.c.; 60 min observation
Excerpt: There are presently several techniques available to study DA receptor blockage in the brain in vivo. One method is based on the ability of antipsychotic drugs to block the behavioral effects induced by the DA agonist apomorphine in the rat. Several studies indicate an excellent correlation between the in vivo DA receptor blockage as measured in the apomorphine test and therapeutic efficacy of different antipsychotic drugs. Apomorphine produces in rats and other species a characteristic syndrome consisting of repetitive movements (stereotypies) and hyperactivity which appear to be due to activation of postsynaptic DA receptors in the brain (J. Pharm. Pharmacol. 19, 627, 1967; J. Neurol. transm. 40, 97-113, 1977). The stereotypies (chewing, licking, biting) appear mainly to be induced via activation of DA receptors linked to the nigro neostriatal DA system (J. Psychiat. Res., 11, 1, 1974) whereas the increased locomotion (hyperactivity) mainly appears to be due to activation of DA receptors in subcortical mesolimbic structures (nucleus olfactorium, nucleus accumbens) i.e. the mesolimbic DA system. (J. Pharm. Pharmacol. 25, 1003, 1973). […]
(§1) In the second system the number of animals displaying hyperactivity caused by apomorphine were scored. […] The ED50 were calculated from log dose-response curves by the method of least squares from 4-6 dose levels with 6-8 animals per dose level.

[4] = test system: DA receptors linked to the nigro neostriatal DA system (apomorphine stereotypies); assay: Reduction of apomorphine-induced stereotypies in the rat; assay type: in vivo, Male Sprague-Dawley rats; conditions: i.p.; 60 min prior to apomorphine hydrochloride 1 mg/kg s.c.; 60 min observation
Excerpt: There are presently several techniques available to study DA receptor blockage in the brain in vivo. One method is based on the ability of antipsychotic drugs to block the behavioral effects induced by the DA agonist apomorphine in the rat. Several studies indicate an excellent correlation between the in vivo DA receptor blockage as measured in the apomorphine test and therapeutic efficacy of different antipsychotic drugs. Apomorphine produces in rats and other species a characteristic syndrome consisting of repetitive movements (stereotypies) and hyperactivity which appear to be due to activation of postsynaptic DA receptors in the brain (J. Pharm. Pharmacol. 19, 627, 1967; J. Neurol. transm. 40, 97-113, 1977). […]
Directly after injection, the animals were placed in the cages, one in each cage. […] The strength of the stereotype was scored on a 0-3 scale as follows:
as §1

Row | IC50 [2] [nM] | SMILES | other results
1 | – | CCN1CCCC1CNC(=O)c1c(O)c(Cl)cc(Cl)c1OC (centres unmarked) | antagonism/inhibition of the apomorphine syndrome in the rat [1]: potent inhibitors
2 | 2.4 | CCCc1cc(OC)c(OC)c(C(=O)NC[C@@H]2CCCN2CC)c1O | –
3 | 1.4 | CCN1CCC[C@H]1CNC(=O)c1c(O)c(Br)cc(OC)c1OC | –
4 | 1.3 | CCc1cc(OC)c(OC)c(C(=O)NC[C@@H]2CCCN2CC)c1O | –
5 | 8.8 | CCN1CCC[C@H]1CNC(=O)c1c(O)ccc(OC)c1OC | –
6 | 0.3 | CCN1CCC[C@H]1CNC(=O)c1c(O)c(Cl)cc(OC)c1OC | –
7 | 2.3 | C=CCN1CCC[C@H]1CNC(=O)c1c(O)c(Br)cc(OC)c1OC | –
8 | 1.3 | COc1cc(Br)c(O)c(C(=O)NC[C@H]2CCCN2Cc2ccc(F)cc2)c1OC | –
9 | – | CCN1CCC[C@H]1CNC(=O)c1c(O)c(Cl)cc(Cl)c1OC | Reduction of hyperactivity ED50 [3]: 0.11 µmol/kg; Reduction of stereotypies ED50 [4]: 2.4 µmol/kg
10 | – | CCN1CCC[C@H]1CNC(=O)c1c(OC)ccc(Br)c1OC [Remoxipride] | antagonism/inhibition of the apomorphine syndrome in the rat [1]: potent antagonist
